Where a name gives a salt, the structure may show the parent alone. Read-outs that look alike come from different tables or passages of the source.
Key:
[1] = test system: lipid peroxidation in liposomes prepared from native rat cardiac lipid; test: Anti-peroxidative activity (superoxide-dependent, iron-promoted lipid peroxidation, MDA-like products); assay type: biochemical; details: for Anti-Peroxidative Activity % Inhibition (1 μM) / IC50: 60 minutes at 37° C.
Method: An in vitro assay system to measure antiperoxidative activity is done in two steps: (A) lipid peroxidation is triggered by a free-radical generating system that replicates the superoxide-dependent, iron-promoted Haber-Weiss reaction, and (B) peroxidation is measured spectrophotometrically as the production of malondialdehyde-like products (MDA). Liposomes prepared from the native rat cardiac lipid are incubated with hypoxanthine, xanthine oxidase, and Fe· ADP chelate, and a test substance or buffer in glass tubes for 60 minutes at 37° C. The amount of peroxidation is determined by adding a thiobarbituric acid-reaction mixture to the tubes, heating to 80° C. for 30 minutes and reading the pink adduct at 530 nm.

[2] = test system: Guinea Pig Ileal Longitudinal Smooth Muscle; test: Inhibition of K+-induced tonic contraction, guinea pig ileum assay (calcium channel blocking activity); assay type: cell-based; details: for activity in the guinea pig ileum test: doses up to 10^-4 M; for IC50: tonic contraction, 80 mM K+ challenge, 37° C., read-out: Inhibition of K^+-Induced Contractile Responses, IC50, Tonic
Method: Male guinea-pigs weighing from 300-400 grams were stunned and bled. The abdomen was opened and 10-15 cm of terminal ileum was carefully removed and cleaned and placed in Tyrode's Solution of the following composition: NaCl (8 g/l), KCl (0.2 g/l), MgCl2 (0.1 g/l), CaCl2 (0.2 g/l). NaH2 PO4 (0.05 g/l), NaHCO3 (1.0 g/l) and Glucose (1 g/l). The solution was maintained at 37° C. and gassed with 95% O2 and 5% CO2. Portions of the ileum were placed over a glass rod, a shallow incision was made the length of the mesenteric attachment just severing the outer-longitudinal muscle layer. The longitudinal muscle was separated from the underlying circular muscle by gentle dissection (Rang. H. P. Annals. of New York Academy of Science, vol. 144, page 756, 1964). The tissue was fixed at one end to a tissue holder, the other end was connected by a thread to a force transducer and suspended in a muscle bath containing Tyrode's Solution maintained at 37° C. and gassed with 95% O2 and 5% CO2. An initial tension of 500 mg was applied and the tissue allowed to equilibrate for 60 minutes prior to the start of the study. During this period the tissue was washed every 16 minutes. Each preparation, at 16 minute intervals, was challenged with KCl sufficient to yield a bath K+ concentration of 80 mMK for 2 minutes, then washed with fresh solution. The 16 minute interval between K+ challenges was maintained throughout the study. Upon stabilization of the responses to the K+ challenge the test compound (potential calcium entry antagonist) was introduced into the bath 2 minutes prior to and during the 2 minute exposure to K+ after which the bath was cleared and washed with fresh solution. Logarithmically increasing doses (up to 10^-4 M) of the potential antagonist were administered as the study progressed. The measure of a compound's ability to inhibit the tonic contraction of muscle is a measure of its activity as a calcium channel blocking agent.

Row | SMILES | IC50 ([2]; Cavia porcellus) [µM] | IC50 [1] [nM] | activity in the anti-peroxidative test [1] | activity in the guinea pig ileum test [2] | further results
1 | COc1ccc([C@@H]2Sc3c(ccc4ccccc34)N(CCN(C)C)C(=O)[C@@H]2OC(=O)c2cc(C(C)(C)C)c(O)c(C(C)(C)C)c2)cc1 (racemic) [Example 14, (±)-cis-2,3-Dihydro-3-[[4-hydroxy-3,5-bis(1,1-dimethylethyl)benzoyl]oxy]-2-(4-methoxyphenyl)-5-[2-(dimethylamino)ethyl]naphtho[1,2-b][1,4]thiazepin-4(5H)-one] |  |  | active | not found to be active | 
2 | COc1ccc([C@@H]2Sc3c(ccc4ccccc34)N(CCN(C)C)C(=O)[C@@H]2OC(=O)c2ccccc2OC(C)=O)cc1 (relative stereo) [Compound E, (±)-cis-3-[[(2-acetyloxy)benzoyl]oxy]-2,3-dihydro-5-[2-(dimethylamino)ethyl]-2-(4-methoxyphenyl)naphtho[1,2-b][1,4]thiazepin-4(5H)-one hydrochloride] | 13 |  |  |  | 
3 | COc1ccc([C@@H]2Sc3c(ccc4ccccc34)N(CCN(C)C)C(=O)[C@@H]2OC(=O)c2ccc(OC)c(OC)c2)cc1 (relative stereo) [Example 4, (±)-cis-3-[(3,4-Dimethoxybenzoyl)oxy]-2,3-dihydro-5-[2-(dimethylamino)ethyl]-2-(4-methoxyphenyl)naphtho][1,2-b][1,4]thiazepin-4(5H)-one] |  |  | active | not found to be active | 
4 | CNCCN1C(=O)[C@H](O)[C@H](c2ccc(OC)cc2)Sc2c1ccc1ccccc21 (relative stereo) [Compound C] |  |  |  |  | IC50 [2]: 7 µM
5 | CNCCN1C(=O)[C@H](OC(C)=O)[C@H](c2ccc(OC)cc2)Sc2c1ccc1ccccc21 (relative stereo) [Compound D] |  |  |  |  | IC50 [2]: 3.5 µM
6 | COc1ccc([C@@H]2Sc3c(ccc4ccccc34)N(CCN(C)C)C(=O)[C@@H]2OC(=O)C2(C)CCc3c(C)c(O)c(C)c(C)c3O2)cc1 (relative stereo) [Example 18, [(+)-cis-3(2alpha and 2beta)1-2,3-Dihydro-3-[[(3,4-dihydro-6-hydroxy-2,5,7,8-tetramethyl-2H-1-benzopyran-2-yl)carbonyl]oxy]-2-(4-methoxyphenyl)-5-[2-(dimethylamino)ethyl]naphtho[1,2-b][1,4]thiazepin-4(5H)-one] |  |  | active | not found to be active | 

Now from value to molecule, other results behind:

Row | IC50 ([2]; Cavia porcellus) [µM] | IC50 [1] [nM] | SMILES | activity in the anti-peroxidative test [1] | activity in the guinea pig ileum test [2] | further results
7 |  | < 1000 | COc1ccc([C@@H]2Sc3c(ccc4ccccc34)N(CCN(C)C)C(=O)[C@@H]2OC(=O)C2(C)CCc3c(cc(C(C)C)c(O)c3C(C)C)O2)cc1 (relative stereo) [Example 15 isomer "B", [(±)-cis-3(2alpha or 2beta)]-2,3-dihydro-3-[[[3,4-dihydro-6-hydroxy-2-methyl-5,7-bis(1-methylethyl)-2H-1-benzopyran-2-yl]carbonyl]oxy]-5-[2-(dimethylamino)ethyl]-2-(4-methoxyphenyl)naphtho[1,2-b][1,4]thiazepin-4(5H)-one] |  |  | Anti-Peroxidative Activity % Inhibition (1 μM) ([1]; listed as drawing 27, 1 µM): 66.7%
8 | 70 |  | COc1ccc([C@@H]2Sc3c(ccc4ccccc34)N(CCN(C)C)C(=O)[C@@H]2OC(=O)c2cc(OC)c(OC)c(OC)c2)cc1 (racemic) [Compound J, (±)-cis-2,3-dihydro-2-(4-methoxyphenyl)-3-[(3,4,5-trimethoxybenzoyl)oxy]-5-[2-(dimethylamino)ethyl]naphtho [1,2-b][1,4]thiazepin-4(5H)-one hydrochloride] |  |  | 
9 |  | < 1000 | COc1ccc([C@@H]2Sc3c(ccc4ccccc34)N(CCN(C)C)C(=O)[C@@H]2OC(=O)C2(C)CCc3c(cc(C(C)C)c(O)c3C(C)C)O2)cc1 (single isomer, unassigned; (+)) [Example 17 isomer "B", [(+)-cis-3(2alpha, or 2beta)]-2,3-dihydro-3-[[[3,4-dihydro-6-hydroxy-2-methyl-5,7-bis(1-methylethyl)-2H-1-benzopyran-2-yl]carbonyl]oxy]-5-[2-(dimethylamino)ethyl]-2-(4-methoxyphenyl)naphtho[1,2-b][1,4]thiazepin-4(5H)-one] |  | not found to be active | Anti-Peroxidative Activity % Inhibition (1 μM) [1]: 59.6%
10 |  | < 1000 | COc1ccc([C@@H]2Sc3c(ccc4ccccc34)N(CCN(C)C)C(=O)[C@@H]2OC(=O)C2(C)CCc3c(cc(C(C)C)c(O)c3C(C)C)O2)cc1 (relative stereo) [Example 15 isomer "A", [(±)-cis-3(2alpha or 2beta)]-2,3-dihydro-3-[[[3,4-dihydro-6-hydroxy-2-methyl-5,7-bis(1-methylethyl)-2H-1-benzopyran-2-yl]carbonyl]oxy]-5-[2-(dimethylamino)ethyl]-2-(4-methoxyphenyl)naphtho[1,2-b][1,4]thiazepin-4(5H)-one] | found to be active |  | Anti-Peroxidative Activity % Inhibition (1 μM) ([1]; listed as drawing 26, 1 µM): 62.6%
11 | 16 |  | COc1ccc([C@@H]2Sc3c(ccc4ccccc34)N(CCN(C)C)C(=O)[C@@H]2OC(=O)c2cccnc2)cc1 (relative stereo) [Compound M, (±)-cis-2,3-dihydro-2-(4-methoxyphenyl)-5-[2-(dimethylamino)ethyl]-3-[(3-pyridinylcarbonyl)oxy]naphtho[1,2-b][1,4]thiazepin-4(5H)-one dihydrochloride (4:5) hydrate] |  |  | 
12 |  | < 1000 | COc1ccc([C@@H]2Sc3c(ccc4ccccc34)N(CCN(C)C)C(=O)[C@@H]2OC(=O)C2(C)CCc3c(cc(C(C)C)c(O)c3C(C)C)O2)cc1 (single isomer, unassigned; (+)) [Example 17 isomer "A", [(+)-Cis-3(2α or 2β)]-2,3-dihydro-3-[[[3,4-dihydro-6-hydroxy-2-methyl-5,7-bis(1-methylethyl)-2H-1-benzopyran-2-yl]carbonyl]oxy]-5-[2-(dimethylamino)ethyl]-2-(4-methoxyphenyl)naphtho[1,2-b][1,4]thiazepin-4(5H)-one (E)-2-butenedioate monohydrate] | found to be active | not found to be active | Anti-Peroxidative Activity % Inhibition (1 μM) ([1]; monohydrate): 58.5%
13 | 45 |  | COc1ccc([C@@H]2Sc3c(ccc4ccccc34)N(CCN(C)C)C(=O)[C@@H]2OC(=O)c2ccccc2O)cc1 (racemic) [Compound F, (±)-cis-2,3-dihydro-3-[(2-hydroxybenzoyl)oxy]-5-[2-(dimethylamino)ethyl]-2-(4-methoxyphenyl)naphtho[1,2-b][1,4]thiazepin-4(5H)-one hydrochloride] |  |  | 
